target: T1, TNKS1 (Homo sapiens, UniProt O95271); assay: Modified TNKS1 Assay 3 (BPS kit #80573, biotin-NAD+, 96 well); format: biochemical; conditions: human TNKS1, BPS kit #80573, 96 well
T1 sequence (O95271 1-1327): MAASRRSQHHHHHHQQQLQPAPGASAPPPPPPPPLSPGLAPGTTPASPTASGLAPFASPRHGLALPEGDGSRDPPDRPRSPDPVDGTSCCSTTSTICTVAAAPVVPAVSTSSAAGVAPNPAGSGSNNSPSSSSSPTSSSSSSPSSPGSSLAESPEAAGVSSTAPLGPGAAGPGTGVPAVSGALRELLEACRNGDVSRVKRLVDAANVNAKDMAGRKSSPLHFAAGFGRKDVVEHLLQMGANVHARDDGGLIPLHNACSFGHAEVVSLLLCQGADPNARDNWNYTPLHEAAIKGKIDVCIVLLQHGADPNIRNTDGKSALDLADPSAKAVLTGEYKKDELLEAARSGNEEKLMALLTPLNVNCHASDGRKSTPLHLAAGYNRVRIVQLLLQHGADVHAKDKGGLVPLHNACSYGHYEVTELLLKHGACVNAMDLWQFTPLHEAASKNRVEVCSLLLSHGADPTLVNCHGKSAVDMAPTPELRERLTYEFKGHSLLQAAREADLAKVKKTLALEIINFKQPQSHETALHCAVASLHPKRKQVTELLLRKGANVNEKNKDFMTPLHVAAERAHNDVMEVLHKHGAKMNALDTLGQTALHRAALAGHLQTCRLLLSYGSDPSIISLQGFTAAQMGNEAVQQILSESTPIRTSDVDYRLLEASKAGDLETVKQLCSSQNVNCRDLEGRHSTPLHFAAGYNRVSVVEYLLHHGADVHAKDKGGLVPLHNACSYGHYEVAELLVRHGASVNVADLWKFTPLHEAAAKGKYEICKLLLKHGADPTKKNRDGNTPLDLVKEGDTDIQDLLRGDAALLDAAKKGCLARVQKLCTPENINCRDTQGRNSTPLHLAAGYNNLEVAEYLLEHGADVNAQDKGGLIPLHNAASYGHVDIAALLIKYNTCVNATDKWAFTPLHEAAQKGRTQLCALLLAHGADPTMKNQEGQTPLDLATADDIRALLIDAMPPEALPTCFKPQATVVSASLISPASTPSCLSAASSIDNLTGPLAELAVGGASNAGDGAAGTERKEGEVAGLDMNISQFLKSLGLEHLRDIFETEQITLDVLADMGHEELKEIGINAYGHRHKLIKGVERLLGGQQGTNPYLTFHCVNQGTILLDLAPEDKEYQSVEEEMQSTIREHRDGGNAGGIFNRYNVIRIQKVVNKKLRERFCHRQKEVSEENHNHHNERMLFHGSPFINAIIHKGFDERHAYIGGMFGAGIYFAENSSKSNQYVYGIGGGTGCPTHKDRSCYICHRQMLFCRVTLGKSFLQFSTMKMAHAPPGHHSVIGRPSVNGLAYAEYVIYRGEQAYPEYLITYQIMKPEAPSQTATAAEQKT
Summary of the method: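 Chemiluminescent assay of TNKS1-catalysed ribosylation of a protein substrate with biotin-labelled NAD+, detected via streptavidin-HRP; run per kit protocol. Inhibition lowers the signal, and IC50 is the compound concentration halving the normalised readout.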

| IC50 [nM] | SMILES |
| --- | --- |
| 80 | CC(CN1CCOCC1)NC(=O)c1[nH]cnc1C(=O)Nc1ccc(NC(=O)c2ccc(F)cc2Cl)cc1 (single isomer, unassigned; enantiomer 1) [Example 269, N^4-{4-[(2-chloro-4-fluorobenzoyl)amino]phenyl}-N^5-[1-(morpholin-4-yl)propan-2-yl]-1H-imidazole-4,5-dicarboxamide (enantiomer 1)] |
| > 500 | CC(CN1CCOCC1)NC(=O)c1[nH]cnc1C(=O)Nc1ccc(NC(=O)c2ccc(F)cc2)cc1 (single isomer, unassigned; enantiomer 1) [Example 295, N^4-{4-[(4-fluorobenzoyl)amino]phenyl}-N^5-[1-(morpholin-4-yl)propan-2-yl]-1H-imidazole-4,5-dicarboxamide (enantiomer 1)] |
| > 500 | CC(CN1CCOCC1)NC(=O)c1[nH]cnc1C(=O)Nc1ccc(NC(=O)c2ccc(F)cc2)cc1 (single isomer, unassigned; enantiomer 2) [Example 296, N^4-{4-[(4-fluorobenzoyl)amino]phenyl}-N^5-[1-(morpholin-4-yl)propan-2-yl]-1H-imidazole-4,5-dicarboxamide (enantiomer 2)] |
| > 500 | O=C(Nc1ccc(NC(=O)c2[nH]cnc2C(=O)N2CC(F)C2)cc1)c1ccc(F)cc1Cl [Example 41, N-{4-[(2-chloro-4-fluorobenzoyl)amino]phenyl}-4-[(3-fluoroazetidin-1-yl)carbonyl]-1H-imidazole-5-carboxamide] |
| > 500 | O=C(Nc1ccc(NC(=O)c2[nH]cnc2C(=O)N2CC(F)C2)cc1)c1cc(F)c(F)cc1Cl [Example 47, N-{4-[(2-chloro-4,5-difluorobenzoyl)amino]phenyl}-4-[(3-fluoroazetidin-1-yl)carbonyl]-1H-imidazole-5-carboxamide] |
| 20 | CN(C)CCNC(=O)c1nc[nH]c1C(=O)Nc1ccc(NC(=O)c2ccc(S(C)(=O)=O)cc2Cl)cc1 [Example 54, N^5-(4-{[2-chloro-4-(methylsulfonyl)benzoyl]amino}phenyl)-N^4-[2-(dimethylamino)ethyl]-1H-imidazole-4,5-dicarboxamide] |
| 50 | CCc1nc(C(=O)Nc2ccc(NC(=O)c3ccc(F)cc3Cl)cc2)c(C(=O)NCCN(C)C)[nH]1 [Example 69, N^4-{4-[(2-chloro-4-fluorobenzoyl)amino]phenyl}-N^5-[2-(dimethylamino)ethyl]-2-ethyl-1H-imidazole-4,5-dicarboxamide] |
| 20 | CCc1nc(C(=O)Nc2ccc(NC(=O)c3ccc(F)cc3Cl)cc2)c(C(=O)NCCN2CCCCC2)[nH]1 [Example 70, N^4-{4-[(2-chloro-4-fluorobenzoyl)amino]phenyl}-2-ethyl-N^5-[2-(piperidin-1-yl)ethyl]-1H-imidazole-4,5-dicarboxamide] |
| > 500 | CNC(=O)c1nc[nH]c1C(=O)Nc1ccc(NC(=O)c2ccccc2Cl)c(OC)c1 [Example 99, N^5-{4-[(2-chlorobenzoyl)amino]-3-methoxyphenyl}-N^4-methyl-1H-imidazole-4,5-dicarboxamide] |
| 460 | CC(C)c1nc(C(=O)Nc2ccc(NC(=O)c3ccc(F)cc3Cl)cc2)c(C(=O)NCCN2CCCCC2)[nH]1 [Example 108, N^4-{4-[(2-chloro-4-fluorobenzoyl)amino]phenyl}-2-isopropyl-N^5-[2-(piperidin-1-yl)ethyl]-1H-imidazole-4,5-dicarboxamide] |
| > 500 | NC(=O)c1nc[nH]c1C(=O)Nc1ccc(NC(=O)c2ccccc2Cl)cc1 [Example 120, N^5-{4-[(2-chlorobenzoyl)amino]phenyl}-1H-imidazole-4,5-dicarboxamide] |
| > 500 | O=C(Nc1ccc(NC(=O)c2nc[nH]c2C(=O)NCC2CC2)cc1)c1ccc(F)cc1Cl [Example 128, N^4-{4-[(2-chloro-4-fluorobenzoyl)amino]phenyl}-N^5-(cyclopropylmethyl)-1H-imidazole-4,5-dicarboxamide] |
| > 500 | O=C(Nc1ccc(NC(=O)c2nc[nH]c2C(=O)NCCO)cc1)c1ccc(F)cc1Cl [Example 132, N^4-{4-[(2-chloro-4-fluorobenzoyl)amino]phenyl}-N^5-(2-hydroxyethyl)-1H-imidazole-4,5-dicarboxamide] |
| 260 | CCNC(=O)c1[nH]cnc1C(=O)Nc1ccc(NC(=O)c2ccc(F)cc2Cl)cc1 [Example 138, N^4-{4-[(2-chloro-4-fluorobenzoyl)amino]phenyl}-N^5-ethyl-1H-imidazole-4,5-dicarboxamide] |
| 290 | O=C(Nc1ccc(NC(=O)c2nc[nH]c2C(=O)NCC(F)F)cc1)c1ccc(F)cc1Cl [Example 139, N^4-{4-[(2-chloro-4-fluorobenzoyl)amino]phenyl}-N^5-(2,2-difluoroethyl)-1H-imidazole-4,5-dicarboxamide] |
| 190 | O=C(Nc1ccc(NC(=O)c2nc[nH]c2C(=O)N2CCC2)cc1)c1ccc(F)cc1Cl [Example 142, 5-(azetidin-1-ylcarbonyl)-N-{4-[(2-chloro-4-fluorobenzoyl)amino]phenyl}-1H-imidazole-4-carboxamide] |
| > 500 | O=C(Nc1ccc(NC(=O)c2nc[nH]c2C(=O)N2CC3(COC3)C2)cc1)c1ccc(F)cc1Cl [Example 145, N-{4-[(2-chloro-4-fluorobenzoyl)amino]phenyl}-5-(2-oxa-6-azaspiro[3.3]hept-6-ylcarbonyl)-1H-imidazole-4-carboxamide] |
| > 500 | CC(C)(N)CNC(=O)c1ncoc1C(=O)Nc1ccc(NC(=O)c2ccc(F)cc2Cl)cc1 [Example 219, N^4-(2-amino-2-methylpropyl)-N^5-{4-[(2-chloro-4-fluorobenzoyl)amino]phenyl}-1,3-oxazole-4,5-dicarboxamide] |
| > 500 | CC(C)(O)CNC(=O)c1[nH]cnc1C(=O)Nc1ccc(NC(=O)c2ccc(F)cc2Cl)cc1 [Example 223, N^4-{4-[(2-chloro-4-fluorobenzoyl)amino]phenyl}-N^5-(2-hydroxy-2-methylpropyl)-1H-imidazole-4,5-dicarboxamide] |
| 20 | O=C(Nc1ccc(NC(=O)c2nc[nH]c2C(=O)NCCN2CCCC2)cc1)c1ccc(F)cc1Cl [Example 228, N^4-{4-[(2-chloro-4-fluorobenzoyl)amino]phenyl}-N^5-[2-(pyrrolidin-1-yl)ethyl]-1H-imidazole-4,5-dicarboxamide] |
| 170 | O=C(Nc1ccc(NC(=O)c2nc[nH]c2C(=O)NCCN2CC[C@@H](F)C2)cc1)c1ccc(F)cc1Cl [Example 231, N^4-{4-[(2-chloro-4-fluorobenzoyl)amino]phenyl}-N^5-{2-[(3R)-3-fluoropyrrolidin-1-yl]ethyl}-1H-imidazole-4,5-dicarboxamide] |
| 480 | O=C(Nc1ccc(NC(=O)c2nc[nH]c2C(=O)NCC2CCOCC2)cc1)c1ccc(F)cc1Cl [Example 233, N^4-{4-[(2-chloro-4-fluorobenzoyl)amino]phenyl}-N^5-(tetrahydro-2H-pyran-4-ylmethyl)-1H-imidazole-4,5-dicarboxamide] |
| 270 | O=C(Nc1ccc(NC(=O)c2nc[nH]c2C(=O)NCC2CCOC2)cc1)c1ccc(F)cc1Cl (stereo not shown) [Example 235, N^4-{4-[(2-chloro-4-fluorobenzoyl)amino]phenyl}-N^5-(tetrahydrofuran-3-ylmethyl)-1H-imidazole-4,5-dicarboxamide] |

tested on: HEK293 FOP control reporter cell line; assay: HEK293 FOP Assay (FOP control vector luciferase reporter); format: cell-based; conditions: Homo sapiens; HEK293 FOP control reporter cell line, 16 hours incubation, compound dilution series 50 μM to 15 nM
Summary of the method: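 Compound series 50 μM to 15 nM, 3.16-fold steps, were diluted in CAFTY buffer (pH 7.4, 2 mM Ca2+, 0.01% BSA) and tested alongside the TOP reporter line. Human Wnt-3a was added at 2500–5 ng/ml in two-fold steps. The control HEK293 line stably holds an FOP vector whose TCF elements are randomized and non-functional.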

| SMILES | IC50 [nM] |
| --- | --- |
| COC(=O)c1nc[nH]c1C(=O)Nc1ccc(NC(=O)c2ccccc2Cl)c(C)c1 [Example 86, methyl-5-({4-[(2-chlorobenzoyl)amino]-3-methylphenyl}carbamoyl)-1H-imidazole-4-carboxylate] | 23000 |
| CNC(=O)c1[nH]c(C(C)C)nc1C(=O)Nc1ccc(NC(=O)c2ccc(F)cc2Cl)cc1 [Example 106, N^4-{4-[(2-chloro-4-fluorobenzoyl)amino]phenyl}-2-isopropyl-N^5-methyl-1H-imidazole-4,5-dicarboxamide] | 13000 |
